Patent US20040058957A1, “Benzothiophene derivatives and herbicidal compositions containing the same” (priority 2000, published 2004)

Tests used:
paddy rice = test: Submersion test, treatment 3 days after transplantation: injury to paddy rice; assay type: in vivo; parameters: key: 0: No injury; 1: Substantially no injury; 2: Slight injury; 3: Some injury; 4: Remarkable injury; 5: Almost all crops dead; conditions: rated 30 days after application
Protocol: A mixture consisting of 57 parts by weight of talc and 40 parts by weight of bentonite as carrier and 3 parts by weight of sodium alkylbenzenesulfonate as surfactant was pulverized and mixed uniformly to obtain a carrier for wettable powder. […] Then, rice seedlings of 2.5 leaf stage were transplanted in the soil. Water was pored into the pot so as to submerge the soil at a depth of 3 cm. The pot was placed in a greenhouse maintained at 20 to 25° C. for vegetation. […] After 30 days from the application of the herbicidal composition, the herbicidal effect and injury to the paddy rice were determined. […] The injury to crops was evaluated according to the following ratings: [table]

Scirpus juncoides [1] = test: Submersion test, treatment 3 days after transplantation: herbicidal effect; assay type: in vivo; conditions: rated 30 days after application
Protocol: (§1) A mixture consisting of 57 parts by weight of talc and 40 parts by weight of bentonite as carrier and 3 parts by weight of sodium alkylbenzenesulfonate as surfactant was pulverized and mixed uniformly to obtain a carrier for wettable powder. Each herbicidal composition was prepared by uniformly pulverizing and mixing 90 parts by weight of the carrier for wettable powder and 10 parts by weight of the benzothiophene derivative produced in each example.
(§2) Seeds of Scirpus juncoides were sowed onto paddy field soil in a Wagner pot of 1/2000 are. Then, rice seedlings of 2.5 leaf stage were transplanted in the soil. Water was pored into the pot so as to submerge the soil at a depth of 3 cm. The pot was placed in a greenhouse maintained at 20 to 25° C. for vegetation. After 3 days from transplantation of the rice seedlings, a predetermined amount of the herbicidal composition prepared in the step [1] was applied to the pot. After 30 days from the application of the herbicidal composition, the herbicidal effect and injury to the paddy rice were determined.
(§3) The herbicidal effect and the injury to crops in the above tests (1) and (2) were evaluated based on the following ratings.
(§4) The degree of weed control (%) was calculated from the weights of the above-ground parts of fresh weeds in the treated area and the untreated area using the following equation:
(§5) Degree of weed control (%)=[1−(weight of weeds in treated area)/(weight of weeds in untreated area)]×100
(§6) The herbicidal effect was determined according to the following ratings: […]

Scirpus juncoides [2] = test: Submersion test, treatment 10 days after transplantation: herbicidal effect; assay type: in vivo; conditions: rated 30 days after application
Protocol: as §1
as §2, with “vegetation. After 10 days from” for “vegetation. After 3 days from”
as §3, §4, §5, §6

SMILES | Injury paddy rice (paddy rice; application rate 100 g/ha) | Injury paddy rice (paddy rice; application rate 200 g/ha) | melting point | Herbicidal effect Scirpus juncoides (Scirpus juncoides [1]; application rate 100 g/ha) | Herbicidal effect Scirpus juncoides (Scirpus juncoides [1]; application rate 200 g/ha) | Herbicidal effect Scirpus juncoides (Scirpus juncoides [2]; application rate 100 g/ha) | Herbicidal effect Scirpus juncoides (Scirpus juncoides [2]; application rate 200 g/ha)
CSC1Cc2c(ccc(C(=O)C3C(=O)CCCC3=O)c2C(F)(F)F)S1(=O)=O (stereo not shown) [Compound No. 11, 2-methylthio-4-trifluoromethyl-5-(1,3-dioxocyclohex-2-yl)carbonyl-2,3-dihydrobenzothiophene 1,1-dioxide] | 0 | 0 | 206.1 to 211.6 °C | 5 (90% or higher (almost completely dead)) | 5 (90% or higher (almost completely dead)) | 5 (90% or higher (almost completely dead)) | 5 (90% or higher (almost completely dead))
CSC1Cc2c(Cl)c(C(=O)C3=C(Cl)CCCC3=O)cc(C)c2S1(=O)=O (stereo not shown) [Compound No. 49, 4-chloro-7-methyl-2-methylthio-5-(3-chloro-1-oxo-2-cyclohexen-2-yl)carbonyl-2,3-dihydrobenzothiophene 1,1-dioxide] | 0 | 0 | – | 5 (90% or higher (almost completely dead)) | 5 (90% or higher (almost completely dead)) | 5 (90% or higher (almost completely dead)) | 5 (90% or higher (almost completely dead))
CS(=O)(=O)c1ccc(C(=O)C2=C(Sc3ccccc3)C3CCC(C3)C2=O)c(Cl)c1 (stereo not shown) [(B), reference compound] | 0 | 0 | – | 3 (40% or higher but less than 70%) | 4 (70% or higher but less than 90%) | 2 (20% or higher but less than 40%) | 3 (40% or higher but less than 70%)
COCCSC1Cc2c(Cl)c(C(=O)C3C(=O)CCCC3=O)cc(C)c2S1(=O)=O (stereo not shown) [Compound No. 45, 4-chloro-7-methyl-2-(2-methoxyethyl)thio-5-(1,3-dioxocyclohex-2-yl)carbonyl-2,3-dihydrobenzothiophene 1,1-dioxide] | 0 | 0 | – | 5 (90% or higher (almost completely dead)) | 5 (90% or higher (almost completely dead)) | 5 (90% or higher (almost completely dead)) | 5 (90% or higher (almost completely dead))
CSC1Cc2c(ccc(C(=O)C3=C(n4cccn4)CCCC3=O)c2Cl)S1(=O)=O (stereo not shown) [Compound No. 39, 4-chloro-2-methylthio-5-[3-(pyrazol-1-yl)-1-oxo-2-cyclohexen-2-yl]carbonyl-2,3-dihydrobenzothiophene 1,1-dioxide] | 0 | 0 | – | 4 (70% or higher but less than 90%) | 5 (90% or higher (almost completely dead)) | 4 (70% or higher but less than 90%) | 5 (90% or higher (almost completely dead))
CSC1Cc2c(ccc(C(=O)C3=C(Cl)CCCC3=O)c2Cl)S1(=O)=O (stereo not shown) [Compound No. 17, 4-chloro-2-methylthio-5-(3-chloro-1-oxo-2-cyclohexen-2-yl)carbonyl-2,3-dihydrobenzothiophene 1,1-dioxide] | 0 | 0 | – | 5 (90% or higher (almost completely dead)) | 5 (90% or higher (almost completely dead)) | 5 (90% or higher (almost completely dead)) | 5 (90% or higher (almost completely dead))
CS(=O)(=O)C1Cc2c(ccc(C(=O)C3C(=O)CCCC3=O)c2Cl)S1(=O)=O (stereo not shown) [Compound No. 15, 4-chloro-2-methanesulfonyl-5-(1,3-dioxocyclohex-2-yl)carbonyl-2,3-dihydrobenzothiophene 1,1-dioxide] | 0 | 0 | – | 5 (90% or higher (almost completely dead)) | 5 (90% or higher (almost completely dead)) | 4 (70% or higher but less than 90%) | 5 (90% or higher (almost completely dead))
CSC1Cc2c(Cl)c(C(=O)C3=C(SCCOC(=O)CCl)CCCC3=O)cc(C)c2S1(=O)=O (stereo not shown) [Compound No. 51, 4-chloro-7-methyl-2-methylthio-5-[3-(2-chloroacetoxyethyl)thio-1-oxo-2-cyclohexen-2-yl]carbonyl-2,3-dihydrobenzothiophene 1,1-dioxide] | 0 | 0 | – | 4 (70% or higher but less than 90%) | 5 (90% or higher (almost completely dead)) | 4 (70% or higher but less than 90%) | 5 (90% or higher (almost completely dead))
CO/N=C/CSC1Cc2c(ccc(C(=O)C3C(=O)CCCC3=O)c2Cl)S1(=O)=O (single isomer, unassigned) [Compound No. 8, 4-chloro-2-(2-methoxyiminoethyl)thio-5-(1,3-dioxocyclohex-2-yl)carbonyl-2,3-dihydrobenzothiophene 1,1-dioxide] | 0 | 0 | – | 4 (70% or higher but less than 90%) | 5 (90% or higher (almost completely dead)) | 5 (90% or higher (almost completely dead)) | 5 (90% or higher (almost completely dead))
CSC1Cc2c(ccc(C(=O)C3=C(N4CCC=N4)CCCC3=O)c2Cl)S1(=O)=O (stereo not shown) [Compound No. 38, 4-chloro-2-methylthio-5-[3-(4,5-dihydropyrazol-1-yl)-1-oxo-2-cyclohexen-2-yl]carbonyl-2,3-dihydrobenzothiophene 1,1-dioxide] | 0 | 0 | – | 4 (70% or higher but less than 90%) | 5 (90% or higher (almost completely dead)) | 4 (70% or higher but less than 90%) | 5 (90% or higher (almost completely dead))
CCOC1=C(C(=O)c2ccc3c(c2Cl)CC(SC)S3(=O)=O)C(=O)CCC1 (stereo not shown) [Compound No. 37, 4-chloro-2-methylthio-5-(3-ethoxy-1-oxo-2-cyclohexen-2-yl)carbonyl-2,3-dihydrobenzothiophene 1,1-dioxide] | 0 | 0 | – | 5 (90% or higher (almost completely dead)) | 5 (90% or higher (almost completely dead)) | 5 (90% or higher (almost completely dead)) | 5 (90% or higher (almost completely dead))
COCCSC1Cc2c(ccc(C(=O)C3=C(Cl)CCCC3=O)c2Cl)S1(=O)=O (stereo not shown) [Compound No. 25, 4-chloro-2-(2-methoxyethyl)thio-5-(3-chloro-1-oxo-2-cyclohexen-2-yl)carbonyl-2,3-dihydrobenzothiophene 1,1-dioxide] | 0 | 0 | – | 4 (70% or higher but less than 90%) | 5 (90% or higher (almost completely dead)) | 4 (70% or higher but less than 90%) | 5 (90% or higher (almost completely dead))
Cc1cc(C(=O)C2C(=O)CCCC2=O)c(Cl)c2c1S(=O)(=O)C(S(C)(=O)=O)C2 (stereo not shown) [Compound No. 46, 4-chloro-7-methyl-2-methanesulfonyl-5-(1,3-dioxocyclohex-2-yl)carbonyl-2,3-dihydrobenzothiophene 1,1-dioxide] | 0 | 0 | – | 5 (90% or higher (almost completely dead)) | 5 (90% or higher (almost completely dead)) | 4 (70% or higher but less than 90%) | 5 (90% or higher (almost completely dead))
